IC50 data for 30 molecules are collected here from US8569308B2, “Substituted heteroarylamine carboxamide analogs as mGluR5 negative allosteric modulators and methods of making and using the same” (Vanderbilt University, priority 2009, dated 2013).

Where only a bound is given, the exact number is not on record here.

Chain of rat mGluR5 (P31424 21-1203): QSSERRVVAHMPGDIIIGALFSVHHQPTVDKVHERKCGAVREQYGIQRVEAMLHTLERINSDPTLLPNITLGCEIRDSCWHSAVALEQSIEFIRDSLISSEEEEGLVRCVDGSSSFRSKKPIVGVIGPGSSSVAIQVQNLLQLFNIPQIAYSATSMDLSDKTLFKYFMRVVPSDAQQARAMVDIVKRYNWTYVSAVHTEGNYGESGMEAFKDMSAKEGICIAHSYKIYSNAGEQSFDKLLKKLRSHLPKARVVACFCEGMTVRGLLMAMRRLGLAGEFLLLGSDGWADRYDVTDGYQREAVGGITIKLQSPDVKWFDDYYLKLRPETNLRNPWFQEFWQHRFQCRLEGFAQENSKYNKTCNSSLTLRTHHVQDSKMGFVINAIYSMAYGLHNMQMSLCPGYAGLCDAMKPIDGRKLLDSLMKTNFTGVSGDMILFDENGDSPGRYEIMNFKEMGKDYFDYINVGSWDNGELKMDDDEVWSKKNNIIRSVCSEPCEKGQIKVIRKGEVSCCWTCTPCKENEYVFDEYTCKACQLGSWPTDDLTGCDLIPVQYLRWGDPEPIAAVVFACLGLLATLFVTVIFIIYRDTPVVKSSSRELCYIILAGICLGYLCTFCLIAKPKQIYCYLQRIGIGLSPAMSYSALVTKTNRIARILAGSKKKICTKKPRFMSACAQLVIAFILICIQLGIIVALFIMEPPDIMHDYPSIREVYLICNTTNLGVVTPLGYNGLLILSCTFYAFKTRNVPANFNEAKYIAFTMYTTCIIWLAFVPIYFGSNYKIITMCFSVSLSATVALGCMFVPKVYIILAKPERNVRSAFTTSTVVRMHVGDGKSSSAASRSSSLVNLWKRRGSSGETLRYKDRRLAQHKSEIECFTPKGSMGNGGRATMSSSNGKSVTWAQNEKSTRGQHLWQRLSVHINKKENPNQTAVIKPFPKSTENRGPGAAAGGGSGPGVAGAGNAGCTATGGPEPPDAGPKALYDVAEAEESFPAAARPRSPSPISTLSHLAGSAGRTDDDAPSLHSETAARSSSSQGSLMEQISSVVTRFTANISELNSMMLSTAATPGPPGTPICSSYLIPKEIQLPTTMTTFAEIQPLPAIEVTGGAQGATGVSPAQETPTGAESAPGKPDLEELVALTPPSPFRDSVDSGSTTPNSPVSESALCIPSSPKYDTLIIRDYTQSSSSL

This assay has as its target rat mGluR5 (Rattus norvegicus, UniProt P31424). Description: cell-based.
Method: The cells were loaded with a Ca2+-sensitive fluorescent dye (e.g., Fluo-4), and the plates were washed and placed in the FDSS instrument. Test compound was applied to cells 3 seconds after baseline readings were taken. Cells were incubated with the test compounds for 140 seconds and then stimulated with an EC20 concentration of an mGluR5 agonist (e.g., glutamate, 3,5-dihydroxyphenylglycine, or quisqualate); 60-80 seconds later an EC80 concentration of agonist was added and readings taken for an additional 40 seconds. Data were collected at 1 Hz. […] Concentration response curves were generated using a four parameter logistical equation.
The above described assay was operated in two modes. In the first mode (utilizing a triple add protocol), a range of concentrations of the present compounds were added to cells, followed by two single fixed concentrations of agonist (EC20 followed by EC80). If a compound acted as a potentiator, an EC50 value for potentiation of the EC20 response and a maximum extent of potentiation by the compound at this concentration of agonist was determined by non-linear curve fitting. If a compound acted as an antagonist, an IC50 value for antagonism of the EC80 response and a maximum extent of antagonism by the compound at this concentration of agonist was determined by non-linear curve fitting. In the second mode (utilizing a double add protocol), several fixed concentrations of the present compounds were added to various wells on a plate, followed by a range of concentrations of agonist for each concentration of present compound; the EC50 values for the agonist at each concentration of compound were determined by nonlinear curve fitting. A decrease in the EC50 value of the agonist with increasing concentrations of the present compounds (a leftward shift of the agonist concentration-response curve) is an indication of the degree of mGluR5 positive allosteric modulation at a given concentration of the present compound. An increase in the EC50 value of the agonist with increasing concentrations of the present compounds (a rightward shift of the agonist concentration response curve) is an indication of the degree of mGluR5 antagonism at a given concentration of the present compound. The second mode also indicates whether the present compounds also affect the maximum response to mGluR5 to agonists.
The mGluR5 activity was determined using the metabotropic glutamate receptor activity assays in human embryonic kidney cells as described herein, wherein the human embryonic kidney cells were transfected with rat mGluR5. The mGluR5 activity data for some compounds are shown as the average of at least three experiments with the standard error in these cases. If no error is indicated for the mGluR5 activity, the values given represent the results from a single experiment or the average of two experiments.
A word on the IC50: it is the concentration that gives 50% inhibition. Low values mean inhibition by little substance, high ones a need for much substance. For `Cc1cccc(C(=O)Nc2cncc(Oc3cccnc3)n2)c1`, the 50% inhibitory concentration (IC50) turned out to be 0.166 µM.

In turn, `N#Cc1cccc(C(=O)Nc2cncc(Oc3cccnc3)c2)c1` registered a half-inhibitory concentration (IC50) of 0.5 µM.

`O=C(Nc1cncc(Oc2cncnc2)c1)c1cccc(F)c1`: the IC50 was more than 10 µM.

With `Cc1cccc(C(=O)Nc2cncc(Oc3ccc(C(F)(F)F)nc3)n2)c1`, the IC50 is more than 10 µM.

Regarding `O=C(Nc1ccnc(Oc2cccnc2)c1)c1cccc(Cl)c1`, half-maximal inhibition (IC50) required 1.12 µM.

In turn, `O=C(Nc1cncc(Oc2cncnc2)c1)c1cccc(C(F)(F)F)n1` came in with an IC50 of more than 30 µM.

Molecule `CN(c1cncnc1)c1ccnc(NC(=O)c2cccc(C#N)c2)c1` displayed an IC50 of 2.26 µM.

Regarding `CCN(c1cncnc1)c1cncc(NC(=O)c2cccc(C#N)c2)c1`, the IC50 stood at 1.79 µM.

`N#Cc1cccc(C(=O)Nc2cccc(Oc3ccc(C(F)(F)F)nc3)n2)c1` had an IC50 of more than 30 µM.

Take `O=C(Nc1cncc(Oc2cncnc2)c1)c1cscn1`: the IC50 was more than 10 µM.

The molecule `CN(c1cncnc1)c1ccnc(NC(=O)c2cccc(Br)c2)c1` displayed an IC50 of 0.162 µM.

With `O=C(Nc1ccnc(Oc2cccnc2)c1)c1cccc(Br)c1`, the IC50 was more than 10 µM.

In turn, `Cc1cccc(C(=O)Nc2cccc(Oc3cncnc3)n2)c1` gave a 50% inhibitory concentration (IC50) of 0.087 µM.

`Cc1cccc(C(=O)Nc2cncc(Oc3cccnc3)n2)n1` came in with an IC50 of more than 30 µM.

The molecule `N#Cc1cncc(C(=O)Nc2cncc(Oc3cncnc3)c2)c1` displayed an IC50 of more than 10 µM.

For the molecule `O=C(Nc1cncc(Oc2cccnc2)n1)c1cccc(Cl)c1`, half-maximal inhibition (IC50) was put at 0.1 ± 0.012 µM.

Regarding `N#Cc1cccc(C(=O)Nc2cncc(Oc3cccnc3)n2)c1`, the IC50 was determined as 0.46 µM.

Molecule `Cc1cccc(C(=O)Nc2cccc(Oc3ccc(C(F)(F)F)nc3)n2)c1` showed an IC50 of more than 30 µM.

Molecule `CN(c1cccnc1)c1ccnc(NC(=O)c2cccc(Br)c2)c1` gave a 50% inhibitory concentration (IC50) of 0.123 µM.

Consider `N#Cc1cccc(C(=O)Nc2cccc(Oc3cccnc3)n2)c1`, for which the IC50 turned out to be 0.266 µM.

In turn, `Cc1ccc(Oc2cncc(NC(=O)c3cccc(Cl)c3)n2)cn1` returned an IC50 of more than 10 µM.

As to `O=C(Nc1cncc(Oc2cncnc2)c1)c1cc(Cl)ccc1F`, the IC50 turned out to be 0.927 µM.

For the molecule `N#Cc1cccc(C(=O)Nc2cccc(Oc3cncnc3)n2)c1`, half-maximal inhibition (IC50) was put at 0.271 µM.

Regarding `Cc1cccc(C(=O)Nc2cccc(Oc3ccc(C(F)(F)F)nc3)n2)n1`, the IC50 was more than 30 µM.

As for `N#Cc1csc(C(=O)Nc2cncc(Oc3cncnc3)c2)c1`, the IC50 is more than 10 µM.

`Cc1cccc(C(=O)Nc2cncc(Oc3ccc(C(F)(F)F)nc3)n2)n1`: the IC50 was more than 30 µM.

As for `Cc1ccc(Oc2cncc(NC(=O)c3cccc(C)n3)n2)cn1`, the half-inhibitory concentration (IC50) was more than 30 µM.

The molecule `Cc1cccc(C(=O)Nc2cccc(Oc3cncnc3)n2)n1` returned a half-inhibitory concentration (IC50) of more than 30 µM.

As to `O=C(Nc1cncc(Oc2cncnc2)c1)c1cccc(F)n1`, the half-inhibitory concentration (IC50) is more than 30 µM.

Take `Cc1cccc(C(=O)Nc2cncc(Oc3ccc(C)nc3)n2)c1`: the concentration for half-maximal inhibition (IC50) is more than 10 µM.
